One block for each compound: values may come before it.
Assays:
Type in all cases: binding
Conditions in all cases: read-out: Ka (M^-1) (converted)
[1] = molecular target: T1, C-phycocyanin (C-PC) (Limnospira platensis, UniProt P72508+P72509); assay: fluorescence quenching titration (PCB emission, excitation […] nm); also near-UV CD, thermal shift of nearly […] °C; design: gene cpcA; native C-PC purified from Spirulina biomass, (αβ)3 trimer / (αβ)6 hexamer; with C-phycocyanin beta subunit (cpcB)
Target sequence in this assay (P72509 whole entry): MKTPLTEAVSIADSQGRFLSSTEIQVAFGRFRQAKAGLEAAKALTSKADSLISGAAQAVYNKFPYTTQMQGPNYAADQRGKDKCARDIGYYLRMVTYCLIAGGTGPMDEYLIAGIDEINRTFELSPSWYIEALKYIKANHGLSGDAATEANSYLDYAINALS
Target sequence in this assay (P72508 whole entry): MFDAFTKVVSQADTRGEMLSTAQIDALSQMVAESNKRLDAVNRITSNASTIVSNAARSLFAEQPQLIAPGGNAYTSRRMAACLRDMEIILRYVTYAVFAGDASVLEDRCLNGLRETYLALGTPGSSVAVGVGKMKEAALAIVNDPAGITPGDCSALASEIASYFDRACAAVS

[2] = molecular target: T1, C-phycocyanin (C-PC); assay: fluorescence quenching titration (PCB emission, excitation […] nm); also UV-VIS, near-UV CD, thermal shift of nearly […] °C; design: gene cpcB; native C-PC purified from Spirulina biomass, (αβ)3 trimer / (αβ)6 hexamer; with C-phycocyanin alpha subunit (cpcA)
Target sequence in this assay (P72508 whole entry): as above
Target sequence in this assay (P72509 whole entry): as the sequence (P72509 whole entry) above

[3] = molecular target: T1, C-phycocyanin (C-PC); assay: fluorescence quenching titration (PCB emission, excitation […] nm); also UV-VIS and near-UV CD; no change in Tm; design: gene cpcB; native C-PC purified from Spirulina biomass, (αβ)3 trimer / (αβ)6 hexamer; with C-phycocyanin alpha subunit (cpcA)
Target sequence in this assay (P72508 whole entry): as the sequence (P72508 whole entry) above
Target sequence in this assay (P72509 whole entry): as the sequence (P72509 whole entry) above

Kd [1]: 2.94 µM
SMILES: COC1=C(OC)C(=O)C(C/C=C(\C)CC/C=C(\C)CC/C=C(\C)CC/C=C(\C)CC/C=C(\C)CC/C=C(\C)CC/C=C(\C)CC/C=C(\C)CC/C=C(\C)CCC=C(C)C)=C(C)C1=O [coenzyme Q10]

SMILES: O=c1c(O)c(-c2ccc(O)c(O)c2)oc2cc(O)cc(O)c12 [quercetin]
Kd [2]: 2.7 µM

SMILES: Oc1ccc(/C=C/c2cc(O)cc(O)c2)cc1 [resveratrol]
Kd [3]: 4.55 µM

Reference: publication PMC10779248, “Investigation of the Potential of Selected Food-Derived Antioxidants to Bind and Stabilise the Bioactive Blue Protein C-Phycocyanin from Cyanobacteria Spirulina” (International Journal of Molecular Sciences, 2023)
